13 compounds from patent US12404283B2, “c-MYC mRNA translation modulators and uses thereof in the treatment of cancer” (Anima Biotech Inc., priority 2022, dated 2025) can be followed below.

Counter-ions that a name gives are not always drawn.

In the assay the test system is c-Myc. Briefly: c-Myc immunofluorescence assay. As to conditions: A549 cells, 24 hours treatment, anti-c-Myc immunofluorescence. It counts as cell-based, human. Put shortly:
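A549 cells grown 48 h, exposed 24 h to rising compound concentrations, then fixed, permeabilised and stained for c-Myc plus DAPI. Nuclear-segmented c-Myc fluorescence quantified by high-content imaging at 20×; EC50 from logistic dose–response fits.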

Regarding `O=C(NCCCN1CCC(F)CC1)c1ccc2c(c1)sc1nc(-c3ccc(C4CCNO4)cc3F)cn12` (stereo not shown) [Compound 543, 2-(2-fluoro-4-(isoxazolidin-5-yl)phenyl)-N-(3-(4-fluoropiperidin-1-yl)propyl)benzo[d]imidazo[2,1-b]thiazole-7-carboxamide], the “Myc Efficacy (−LogEC50)” value was “+++ (+++ ≥6)”.

For `CN1CCC(NC(=O)c2ccc3c(c2)sc2nc(-c4ccc(N5CCNCC5)cc4F)cn23)CC1` [Compound 547, 2-(2-fluoro-4-(piperazin-1-yl)phenyl)-N-(1-methylpiperidin-4-yl)benzo[d]imidazo[2,1-b]thiazole-7-carboxamide], the “Myc Efficacy (−LogEC50)” value was “+++ (+++ ≥6)”.

Regarding `CC(=O)Nc1ccc2c(c1)sc1nc(-c3ccc(C4CCCN4)cc3F)cn12` (stereo not shown) [Compound 548, N-(2-(2-fluoro-4-(pyrrolidin-2-yl)phenyl)benzo[d]imidazo[2,1-b]thiazol-7-yl)acetamide], the “Myc Efficacy (−LogEC50)” value is “+++ (+++ ≥6)”.

On to `CN1CCC(C(=O)Nc2ccc3c(c2)sc2nc(-c4ccc(C5CCCN5)cc4F)cn23)CC1` (stereo not shown) [Compound 593, N-(2-(2-fluoro-4-(pyrrolidin-2-yl)phenyl)benzo[d]imidazo[2,1-b]thiazol-7-yl)-1-methylpiperidine-4-carboxamide dihydrochloride], for which the “Myc Efficacy (−LogEC50)” value is recorded as “+++ (+++ ≥6)”.

For `O=C(Nc1ccc2c(c1)sc1nc(-c3ccc(C4CCCN4)cc3F)cn12)C1CCOCC1` (stereo not shown) [Compound 594, N-(2-(2-fluoro-4-(pyrrolidin-2-yl)phenyl)benzo[d]imidazo[2,1-b]thiazol-7-yl)tetrahydro-2H-pyran-4-carboxamide hydrochloride], the “Myc Efficacy (−LogEC50)” value was “+++ (+++ ≥6)”.

Consider `O=C(NCCCN1CCC(F)CC1)c1ccc2c(c1)sc1nc(-c3cc4c(cc3F)CCNC4)cn12` [Compound 600, 2-(6-fluoro-1,2,3,4-tetrahydroisoquinolin-7-yl)-N-(3-(4-fluoropiperidin-1-yl)propyl)benzo[d]imidazo[2,1-b]thiazole-7-carboxamide dihydrochloride], for which the “Myc Efficacy (−LogEC50)” value is listed as “+++ (+++ ≥6)”.

On to `O=C(NCCCN1CCC(F)CC1)c1ccc2c(c1)sc1nc(-c3cc4c(cc3F)NCC4)cn12` [Compound 602, 2-(6-fluoroindolin-5-yl)-N-(3-(4-fluoropiperidin-1-yl)propyl)benzo[d]imidazo[2,1-b]thiazole-7-carboxamide], for which the “Myc Efficacy (−LogEC50)” value is “+++ (+++ ≥6)”.

In the case of `O=C(NCCCN1CCCCC1)c1ccc2c(c1)sc1nc(-c3ccccc3)cn12` [compound 101, 2-phenyl-N-(3-(piperidin-1-yl)propyl)benzo[d]imidazo[2,1-b]thiazole-7-carboxamide], the “Myc Efficacy (−LogEC50)” value is “+++ (+++ ≥6)”.

`Cc1ccc(-c2cn3c(n2)sc2cc(C(=O)N4CCCCCC4)ccc23)cc1` [compound 102, Azepan-1-yl(2-(p-tolyl)benzo[d]imidazo[2,1-b]thiazol-7-yl)methanone]: the “Myc Efficacy (−LogEC50)” value was “+ (+ >3 and <5)”.

For `O=C(NCCCN1CCCCCC1)c1ccc2c(c1)sc1nc(-c3ccccc3)cn12` [compound 103, N-(3-(azepan-1-yl)propyl)-2-phenylbenzo[d]imidazo[2,1-b]thiazole-7-carboxamide], the “Myc Efficacy (−LogEC50)” value was “+++ (+++ ≥6)”.

For the compound `O=C(c1ccc2c(c1)sc1nc(-c3ccc(F)cc3)cn12)N1CCCCCC1` [compound 104, azepan-1-yl(2-(4-fluorophenyl)benzo[d]imidazo[2,1-b]thiazol-7-yl)methanone], the “Myc Efficacy (−LogEC50)” value was “+ (+ >3 and <5)”.

Regarding `CCCSCCCNC(=O)c1ccc2c(c1)sc1nc(-c3ccc(F)cc3)cn12` [compound 105, 2-(4-fluorophenyl)-N-(3-(propylthio)propyl)benzo[d] imidazo[2,1-b]thiazole-7-carboxamide], the “Myc Efficacy (−LogEC50)” value is “+ (+ >3 and <5)”.

As to `CCOc1ccc(-c2cn3c(n2)sc2cc(C(=O)N4CCCCCC4)ccc23)cc1` [compound 106, azepan-1-yl(2-(4-ethoxyphenyl)benzo[d]imidazo[2,1-b]thiazol-7-yl)methanone], the “Myc Efficacy (−LogEC50)” value was “+ (+ >3 and <5)”.
